Measured values published in patent US20020025508A1, “Process for finding a protease inhibitor” (priority 2000, published 2002).
Residues, ends and D or L forms follow the SMILES beside them. *: point of attachment. Cbz = O=C(OCc1ccccc1)*

How the values were obtained:
Assay type in all cases: cell-based, human
γ-secretase = γ-secretase HTS luciferase reporter assay (Aβ-KKK/Gal4 substrate, SteadyGlo); settings: different concentrations; for inhibition of Aβ formation (luciferase signal): cell clones Aβ-KKK-ER/40, 59, 65 and Aβ-KKK/52 (also Aβ-KKK/40 for substance B), overnight
Text: H4 neuroglioma cells (Accession Number HTB 148 at the American Type Culture Collection, Manassas, Va., USA) were stably transfected under standard conditions with the reporter construct pFRLuc (Stratagene) which carries the gene for luciferase which is under the control of a promoter containing the Gal4 DNA binding domain. […] In order to prepare the Aβ-KKK/Gal4 construct, a sequence which contained the N-terminal signal sequence of APP and the first 55 amino acids of Aβ (Shoji, M. et al., Science, 1992; 158:126-129) was attached to the Gal4 coding sequence (Laughan, A. and Gesteland, R., Molec. Cell Biol., 1984, 4:260-267) by genetic engineering methods and cloned into the expression vector pcDNA3neo (Invitrogen). This construct was designated Aβ-KKK/Gal4. In order to insert an ER-retention signal in the substrate of the γ-secretase, the last nucleotides of the Gal4 were modified by genetic engineering methods so that they coded for amino acids KKLI. This construct was named Aβ-KKK-ER/Gal4. The cell clone obtained as described above was used for the second stable transfection with pcDNA3/Aβ-KKK/Gal4 or pcDNA3/Aβ-KKK-ER/Gal4 and the selection was carried out with neomycin under standard conditions (Sambrook and Maniatis, Molecular Cloning: A Laboratory Manual, Cold Spring Harbor Laboratory, Cold Spring Harbor, N.Y., 1989). Individual neomycin-resistant cell clones were tested for expression of luciferase. The clones with the highest expression were used for the substance analyses. All the transfections were carried out using the Fugene transfection system of Boehringer Mannheim in accordance with the manufacturer's instructions.
The doubly stable HTS cell line is seeded onto a 96/384 microtitre plate. When the cells achieved confluence they are incubated with the test substance in question for a specified length of time.
By the presence of an endogenous or exogenous γ-secretase activity in the H4 cells, the substrate (Aβ-KKK/Gal4) is cleaved proteolytically, whereupon the transactivator Gal4 can detach itself from the membrane and enter the cell nucleus. In the cell nucleus, Gal4 binds to the Gal4 DNA binding domain of the reporter construct and thus activates the expression of the luciferase. When a specific γ-secretase inhibitor is present the substrate cannot be cleaved and Gal4 remains bound to the substrate on the cell membrane, leading to a reduction and even total inhibition of the luciferase activity.
Cells are seeded onto 96/[…] well plates in DMEM whole medium (10% FCS, 1% glutamine, 1% penicillin/streptomycin) in a dilution of 1:5. […] Then, the luminescence is measured. […]

[1] = system: Aβ40 and Aβ42 secreted by U373/APP751 cell line; assay: ELISA of extracellular Aβ40 and Aβ42 secreted by U373/APP751 cells
Procedure: Substance A was also active in a cellular test system in which the extracellular content of Aβ40 and Aβ42 secreted by the U373 cell line (U373: ATCC No. HTB 14) was determined. This cell line, U373/APP751, is an astrocytoma cell line which overexpresses human APP751 and secretes large amounts of Aβ40 (about 1000 pg/ml/4 hours with 5×10^7 cells in 15 ml of medium) and Aβ42 (about 1000 pg/ml/4 hours with 5×10^7 cells in 15 ml of medium). The measurement is carried out by ELISA (Steiner, H. et al., J. Biol. Chem, 1998, 273:32322-32331).

[2] = system: HTS test cell lines Aβ-KKK-ER/59 and Aβ-KKK/52 (H4 cells); assay: Alamar Blue vitality (cytotoxicity) test; settings: clones Aβ-KKK-ER/59 and Aβ-KKK/52, entire range of concentrations, parallel to luciferase test
Procedure: A possible toxic effect of the BFA (in different concentrations) on the cells was investigated using an Alamar Blue test (see below) which was carried out in parallel to the luciferase test.
Alamar Blue (Messrs. Biosource International, VE=100 ml, Cat.No. DAL 1100 (AL-01 -100)) was sterile-filtered. The seeding of the cells and substance incubation were carried out as in Example 1.
The Alamar blue incubation was carried out parallel to the luciferase test.
Alamar blue was diluted to 5% with whole medium (DMEM m 4.5 g/l glucose+10% FCS+1% glutamine+1% Pen/Strep). The medium was suction filtered. The cells were washed once with medium or PBS. One hundred microliters of (5%) Alamar blue were added (96 well plate) and a plate was incubated for 1 hour in the incubator at 37° C. and in 5% CO2. Fluorimetric measurement was carried out at an input wavelength of 544 nm, an emission wavelength of 590 nm and a measuring time of 0.3 s/well. The results are given as a percentage of the control.

Row | Compound | inhibition of Aβ formation (luciferase signal) (γ-secretase) | Aβ40 secretion [1] | Aβ42 secretion [1] | BFA effect on luciferase signal (γ-secretase; cell clone Aβ-KKK/52 (without ER retention signal), 6 hours) | loss of vitality (toxic effect on the cells) [2]
1 | CCCCNC(=O)[C@@H](C[C@H](O)[C@H](CC1CCCCC1)NCCCC(C)C)C(C)C [Substance A] | inhibits Aβ formation in a manner dependent on concentration | greatly reduced in concentration-dependent manner | increased at sub-inhibitory doses and then also inhibited at higher doses | – | –
2 | CC(C)C(NC(=O)OCc1ccccc1)C(=O)NC(C=O)Cc1ccccc1 (stereo not drawn) [Substance B] (Cbz-Val-Phe-aldehyde; configuration not given here) | does not inhibit Aβ formation in concentration-dependent manner | – | – | – | –
3 | C[C@H]1CCC/C=C/[C@@H]2C[C@H](O)C[C@H]2[C@H](O)/C=C/C(=O)O1 [BFA, Brefeldin A, reference compound] | – | – | – | clear BFA effect could be seen | No loss of vitality
4 | Cc1nccn1Cc1ccccn1 [Substance C] | does not inhibit Aβ formation in concentration-dependent manner | – | – | – | –
